How the values were obtained:
[1] = tested on: human large intestine cancer cell line (HCT-116); test: Human large intestine cancer (HCT-116) cell growth inhibition test; type: cell-based; conditions: 72 h, HCT-116, culture for 3 days, sulforhodamine B absorbance
Protocol: Human Large Intestine Cancer (HCT-116) Cell Growth Inhibition Test
The measurement of a human large intestine cancer cell growth inhibitory effect was carried out by modifying the method of Simak et al. (Cancer Research, 69, 6208 (2009)).
A human large intestine cancer cell line (HCT-116) (manufactured by DS Pharma Biomedical Co., Ltd., Cat. No. EC91091005) was cultured in McCoy's 5a (manufactured by GIBCO/Thermo Fisher Scientific, Inc., REF. 16600-082) medium containing 10% FBS (manufactured by GIBCO/Thermo Fisher Scientific, Inc., REF. 10082-147) and 1% penicillin/streptomycin/amphotericin B (manufactured by GIBCO/Thermo Fisher Scientific, Inc., REF. 15240-096) and inoculated at 1.0×10^3 cells/well in a 96-well plate (manufactured by Corning Inc., REF. 353072). After overnight culture in a carbon dioxide incubator, it was replaced with a fresh McCoy's 5a medium containing 10% FBS on the next day, and a test compound dissolved in DMSO (manufactured by Wako Pure Chemical Industries, Ltd., Code No. 043-07216) (final DMSO concentration: 0.1%) was added and left standing in a carbon dioxide incubator. After culturing for 3 days, the absorbance of each well was measured by using In Vitro Toxicology Assay Kit Sulforhodamine B based (manufactured by Sigma-Aldrich Co. LLC., Pcode 1001910706).
The rate of inhibition of cell growth at each concentration was calculated from the test compound concentration and the absorbance of sulforhodamine B, and the concentration of the test compound necessary for inhibiting 50% of cell growth (IC50 value) was calculated by using EXSUS (version 8.0.0 or version 8.0.1, manufactured by CAC Exicare Corp.).

CDK7 = target: T1, CDK7 (Homo sapiens, UniProt P50613); test: CDK7 enzyme inhibition test; type: biochemical; conditions: Ki=IC50/(1+S/Km); 33P bound to MBP, [γ-33P]ATP, 30° C. for 20 minutes; read-out: Ki value of CDK7 inhibitory activity
T1 construct: purchased Carna Biosciences, Inc. 04-108
T1 sequence (P50613 whole entry): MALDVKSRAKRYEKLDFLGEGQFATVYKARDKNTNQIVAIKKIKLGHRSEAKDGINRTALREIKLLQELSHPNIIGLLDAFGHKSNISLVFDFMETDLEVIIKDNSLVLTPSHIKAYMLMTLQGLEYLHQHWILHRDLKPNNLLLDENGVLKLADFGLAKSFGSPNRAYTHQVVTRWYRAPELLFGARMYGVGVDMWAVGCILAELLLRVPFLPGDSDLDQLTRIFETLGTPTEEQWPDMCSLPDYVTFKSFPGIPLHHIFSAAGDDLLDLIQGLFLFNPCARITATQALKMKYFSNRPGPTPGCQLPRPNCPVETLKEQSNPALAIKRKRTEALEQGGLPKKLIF
T1 sequence (P51946 whole entry partner): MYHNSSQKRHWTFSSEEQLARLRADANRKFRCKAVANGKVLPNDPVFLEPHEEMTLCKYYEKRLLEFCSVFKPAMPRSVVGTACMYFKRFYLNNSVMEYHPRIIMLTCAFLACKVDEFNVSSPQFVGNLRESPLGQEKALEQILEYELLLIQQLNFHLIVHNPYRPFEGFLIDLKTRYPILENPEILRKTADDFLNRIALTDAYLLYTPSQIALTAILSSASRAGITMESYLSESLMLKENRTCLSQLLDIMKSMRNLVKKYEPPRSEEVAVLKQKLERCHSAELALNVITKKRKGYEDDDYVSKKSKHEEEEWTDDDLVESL
T1 sequence (P51948 whole entry partner): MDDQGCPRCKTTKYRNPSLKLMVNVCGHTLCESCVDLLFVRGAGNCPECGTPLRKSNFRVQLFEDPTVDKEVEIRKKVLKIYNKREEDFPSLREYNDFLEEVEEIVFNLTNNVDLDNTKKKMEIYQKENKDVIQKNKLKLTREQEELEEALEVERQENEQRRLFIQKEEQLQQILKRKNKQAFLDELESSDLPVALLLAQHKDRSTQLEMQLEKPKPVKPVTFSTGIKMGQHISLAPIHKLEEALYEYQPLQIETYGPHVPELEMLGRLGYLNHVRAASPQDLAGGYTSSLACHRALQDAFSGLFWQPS
Protocol: CDK7 Enzyme Inhibition Test
The preparation of a buffer solution was performed by mixing a N-2-hydroxyethylpiperazine-N′-2-ethanesulfonic acid buffer solution (HEPES buffer solution) (pH 7.4), dithiothreitol (DTT), Triton X-100, and magnesium chloride (MgCl2). A 500 μM [γ-^33P]ATP solution was used by diluting a 10 mM ATP solution and a commercially available [γ-^33P]ATP solution (manufactured by PerkinElmer, Inc., Code No. NEG-302H) with the buffer solution. A CDK7 solution was used by diluting commercially available CDK7 (manufactured by Carna Biosciences, Inc., Catalog No. 04-108) with the buffer solution. A substrate solution was used by diluting myelin basic protein (MBP) with the buffer solution. As for the preparation of a reaction solution, the buffer solution, the 500 μM [γ-^33P]ATP solution, the CDK7 solution, and the substrate solution were mixed at 4° C. to obtain a reaction solution.
CDK7 enzyme reaction was performed by adding 5 μL of a test compound solution prepared with 10% dimethyl sulfoxide (DMSO)/90% injectable distilled water, and 45 μL of the reaction solution to a 1.5 mL microtube at 4° C. and reacting in the microtube at 30° C. for 20 minutes in a water bath incubator. After the reaction, a 10% aqueous trichloroacetic acid (TCA) solution was added to each microtube while cooled to 4° C., and mixed to terminate the reaction. The resultant was left standing at 4° C. for 10 minutes and then centrifuged in a centrifuge, and the supernatant was discarded. Next, a 2% aqueous TCA solution was added, mixed, and then centrifuged in a centrifuge, and the supernatant was discarded. This washing operation was performed twice. After the washing, precipitates were dissolved in a 1 N aqueous sodium hydroxide (NaOH) solution, and the energy quantity (radioactivity) of the reaction product was measured with a liquid scintillation counter.
The calculation of the inhibitory activity of the test compound against CDK7 was performed as a test compound concentration inhibiting 50% of the amount of ^33P bound to MBP (IC50 value) by using EXSUS (version 8.0.0 or version 8.0.1, manufactured by CAC Exicare Corp.).
The calculation of a Ki value was performed according to the following calculation expression. S means the concentration of ATP contained in the reaction solution, and Km means a Michaelis-Menten constant. Ki=IC50/(1+S/Km)

| Compound | IC50 [1] | Ki (CDK7) |
| --- | --- | --- |
| CC(Oc1cccc(Cl)c1)C(=O)N1Cc2c(NC(=O)C3([Si](C)(C)C)CCC3)n[nH]c2C1(C)C (stereo not shown) [IV-1268, N-{5-[2-(3-Chlorophenoxy)propanoyl]-6,6-dimethyl-1,4,5,6-tetrahydropyrrolo[3,4-c]pyrazol-3-yl}-1-(trimethylsilyl)cyclobutanecarboxamide] | ≤ 500 nM |  |
| Cc1ccccc1[C@@H](CO)NC(=O)N1Cc2c(NC(=O)C3([Si](C)(C)C)CCC3)n[nH]c2C1(C)C [IV-1067, (S)—N-[2-Hydroxy-1-(o-tolyl)ethyl]-6,6-dimethyl-3-[1-(trimethylsilyl)cyclobutanecarboxamido]-4,6-dihydropyrrolo[3,4-c]pyrazole-5(1H)-carboxamide] | ≤ 500 nM | ≤ 50 nM |
| CC(C)(CO)C(NC(=O)N1Cc2c(NC(=O)C3([Si](C)(C)C)CCC3)n[nH]c2C1(C)C)c1ccccc1 (single isomer, unassigned; (+)) [IV-672, (+)-N-(3-Hydroxy-2,2-dimethyl-1-phenylpropyl)-6,6-dimethyl-3-[1-(trimethylsilyl)cyclobutanecarboxamido]-4,6-dihydropyrrolo[3,4-c]pyrazole-5(1H)-carboxamide] | ≤ 500 nM |  |
| COC(C(=O)N1Cc2c(NC(=O)C3([Si](C)(C)C)CCC3)n[nH]c2C1(C)C)c1cccs1 (single isomer, unassigned; (+)) [IV-1547, (+)-N-{5-[2-Methoxy-2-(thiophen-2-yl)acetyl]-6,6-dimethyl-1,4,5,6-tetrahydropyrrolo[3,4-c]pyrazol-3-yl}-1-(trimethylsilyl)cyclobutanecarboxamide] |  | ≤ 50 nM |
| CC1(C)c2[nH]nc(NC(=O)C3([Si](C)(C)C)CCC3)c2CN1C(=O)NC(c1ccccc1)C(F)(F)CO (racemic) [IV-362, N-(2,2-Difluoro-3-hydroxy-1-phenylpropyl)-6,6-dimethyl-3-[1-(trimethylsilyl)cyclobutanecarboxamido]-4,6-dihydropyrrolo[3,4-c]pyrazole-5(1H)-carboxamide] | ≤ 500 nM | ≤ 50 nM |
| CC1(C)c2[nH]nc(NC(=O)C3([Si](C)(C)C)CCC3)c2CN1C(=O)[C@H](CO)c1ccccc1 [IV-633, (S)—N-[5-(3-Hydroxy-2-phenylpropanoyl)-6,6-dimethyl-1,4,5,6-tetrahydropyrrolo[3,4-c]pyrazol-3-yl]-1-(trimethylsilyl)cyclobutanecarboxamide] | ≤ 500 nM | ≤ 50 nM |
| CC1(C)c2[nH]nc(NC(=O)C3([Si](C)(C)C)CCC3)c2CN1C(=O)CC(CO)c1ccccc1 (stereo not shown) [IV-558, N-[5-(4-Hydroxy-3-phenylbutanoyl)-6,6-dimethyl-1,4,5,6-tetrahydropyrrolo[3,4-c]pyrazol-3-yl]-1-(trimethylsilyl)cyclobutanecarboxamide] | ≤ 500 nM |  |
| CC1(C)c2[nH]nc(NC(=O)C3([Si](C)(C)C)CC3)c2CN1C(=O)[C@H](CO)c1ccccc1 [III-592, (S)—N-[5-(3-Hydroxy-2-phenylpropanoyl)-6,6-dimethyl-1,4,5,6-tetrahydropyrrolo[3,4-c]pyrazol-3-yl]-1-(trimethylsilyl)cyclopropanecarboxamide] | ≤ 500 nM | ≤ 50 nM |
| CC1(C)c2[nH]nc(NC(=O)C3([Si](C)(C)C)CCC3)c2CN1C(=O)C(CO)Oc1ccccc1 (stereo not shown) [IV-1330, N-[5-(3-Hydroxy-2-phenoxypropanoyl)-6,6-dimethyl-1,4,5,6-tetrahydropyrrolo[3,4-c]pyrazol-3-yl]-1-(trimethylsilyl)cyclobutanecarboxamide] | ≤ 500 nM | ≤ 50 nM |
| CC1(C)c2[nH]nc(NC(=O)C3([Si](C)(C)C)CCC3)c2CN1C(=O)N[C@H](CO)Cc1ccccc1 [IV-862, (S)—N-(1-Hydroxy-3-phenylpropan-2-yl)-6,6-dimethyl-3-[1-(trimethylsilyl)cyclobutanecarboxamido]-4,6-dihydropyrrolo[3,4-c]pyrazole-5(1H)-carboxamide] | ≤ 500 nM | ≤ 50 nM |
| CC(Oc1ccccc1Cl)C(=O)N1Cc2c(NC(=O)C3([Si](C)(C)C)CCC3)n[nH]c2C1(C)C (stereo not shown) [IV-1266, N-{5-[2-(2-Chlorophenoxy)propanoyl]-6,6-dimethyl-1,4,5,6-tetrahydropyrrolo[3,4-c]pyrazol-3-yl}-1-(trimethylsilyl)cyclobutanecarboxamide] | ≤ 500 nM |  |
| CC1(C)c2[nH]nc(NC(=O)C3([Si](C)(C)C)CCC3)c2CN1C(=O)CC(O)c1ccccc1 (stereo not shown) [IV-562, N-[5-(3-Hydroxy-3-phenylpropanoyl)-6,6-dimethyl-1,4,5,6-tetrahydropyrrolo[3,4-c]pyrazol-3-yl]-1-(trimethylsilyl)cyclobutanecarboxamide] | ≤ 500 nM |  |
| CC1(C)c2[nH]nc(NC(=O)C3([Si](C)(C)C)CCC3)c2CN1C(=O)C(Oc1ccccc1)c1ccccc1 (stereo not shown) [IV-1211, N-[6,6-Dimethyl-5-(2-phenoxy-2-phenylacetyl)-1,4,5,6-tetrahydropyrrolo[3,4-c]pyrazol-3-yl]-1-(trimethylsilyl)cyclobutanecarboxamide] | ≤ 500 nM |  |
| CC1(C)c2[nH]nc(NC(=O)C3([Si](C)(C)C)CCC3)c2CN1C(=O)N[C@@H](CO)Cc1ccccc1 [IV-861, (R)—N-(1-Hydroxy-3-phenylpropan-2-yl)-6,6-dimethyl-3-[1-(trimethylsilyl)cyclobutanecarboxamido]-4,6-dihydropyrrolo[3,4-c]pyrazole-5(1H)-carboxamide] | ≤ 500 nM |  |
| CCC(O)(CC)C[C@@H](NC(=O)N1Cc2c(NC(=O)C3([Si](C)(C)C)CCC3)n[nH]c2C1(C)C)c1ccccc1 [IV-759, (R)—N-(3-Ethyl-3-Hydroxy-1-phenylpentyl)-6,6-dimethyl-3-[1-(trimethylsilyl)cyclobutanecarboxamido]-4,6-dihydropyrrolo[3,4-c]pyrazole-5(1H)-carboxamide] | ≤ 500 nM |  |
| CC1(C)c2[nH]nc(NC(=O)C3([Si](C)(C)C)CCC3)c2CN1C(=O)NC(CO)c1cccnc1 (stereo not shown) [IV-542, N-[2-Hydroxy-1-(pyridin-3-yl)ethyl]-6,6-dimethyl-3-[1-(trimethylsilyl)cyclobutanecarboxamido]-4,6-dihydropyrrolo[3,4-c]pyrazole-5(1H)-carboxamide] |  | ≤ 50 nM |
| COCCC(C(=O)N1Cc2c(NC(=O)C3([Si](C)(C)C)CCC3)n[nH]c2C1(C)C)c1ccccc1 (stereo not shown) [IV-1224, N-[5-(4-Methoxy-2-phenylbutanoyl)-6,6-dimethyl-1,4,5,6-tetrahydropyrrolo[3,4-c]pyrazol-3-yl]-1-(trimethylsilyl)cyclobutanecarboxamide] | ≤ 500 nM |  |
| CN(C)CC(Oc1ccccc1)C(=O)N1Cc2c(NC(=O)C3([Si](C)(C)C)CCC3)n[nH]c2C1(C)C (stereo not shown) [IV-1372, N-{5-[3-(Dimethylamino)-2-phenoxypropanoyl]-6,6-dimethyl-1,4,5,6-tetrahydropyrrolo[3,4-c]pyrazol-3-yl}-1-(trimethylsilyl)cyclobutanecarboxamide] |  | ≤ 50 nM |
| CC(C)(CO)C(NC(=O)N1Cc2c(NC(=O)C3([Si](C)(C)C)CCC3)n[nH]c2C1(C)C)c1cccc(F)c1 (single isomer, unassigned; (-)) [IV-920, (−)-N-[1-(3-Fluorophenyl)-3-hydroxy-2,2-dimethylpropyl]-6,6-dimethyl-3-[1-(trimethylsilyl)cyclobutanecarboxamido]-4,6-dihydropyrrolo[3,4-c]pyrazole-5(1H)-carboxamide] |  | ≤ 50 nM |
